The record followed here is US8778971B2, “Medicinal treatment of dermal diseases in companion animals” (Bridge Pharma, Inc., priority 2012, dated 2014).

One data set deals with mice. As to the kind of experiment: Sedative effects in mice, physostigmine lethality test. The note with it: for Sedated animals: mice. As to the method:
In short, physostigmine (1.0 mg/kg to 2.0 mg/kg, s.c.) generally results in 100% lethality when given to groups of mice (10 mice/group) transferred into a small volume of space. Mice administered a sedating drug prior to the physostigmine injection are protected from the stress and survive. In the present study, test compounds were given orally 60 minutes prior to physostigmine injection. The number of surviving (sedated) mice was counted 30 minutes after injection of the physostigmine dose.

For another data set, the system named is Candida albicans. As to the kind of experiment: Antimicrobial test, plate count. The format is cell-based. The note with it: 0.035% norketotifen, within 7 days, from 500,000. The procedure:
(§1) Studies were performed to evaluate possible antimicrobial activities of norketotifen at various concentrations and various pHs. […]. The standard microbial solutions of norketotifen contained the following excipients: Sodium citrate (0.3%), propylene glycol (1.75%), methylparaben (0.03%), propylparaben (0.01%), sterile water (as diluent).
(§2) The microorganisms were inoculated into 50 mL centrifuge tubes containing 10 mL of test sample at T=0. One (1) mL was aliquoted from each centrifuge tube for each of the following 4 weeks (except at 21 days). The log reduction was determined by the plate count method after 7, 14 and 28 days by diluting in DEB (D/E neutralizing Broth) from 10^−1 to 10^−4 for bacteria. Bacterial plates were poured with SCDA (Soybean Casein Digest Agar) and incubated at 32.5±2.5° C. for 3-5 days

The test system of another data set is Staphylococcus aureus. As to the kind of experiment: Antimicrobial test, plate count. The format is cell-based. The note with it: 0.035% norketotifen, within 7 days, from 750,000. As to the method:
as §1, §2

Data set [1] has as its system human leukocytes (buffy coat). As to the kind of experiment: Inhibition of A23187-stimulated histamine release from leukocytes. The format is cell-based. The procedure: In these studies, histamine was the marker compound for inflammatory mediators that are released from mast cells and other pro-inflammatory cells in patients with atopic inflammatory diseases. The inhibition of stimulated histamine release from human leukocytes (buffy coat) by test articles was studied. Leukocytes were obtained from healthy volunteers and histamine release was induced by incubation (20 min/37° C.) with the calcium ionophore A23187 (5 μM) in the presence or absence of a test article. Histamine was analyzed by enzyme-immune assays, using commercially available kits and a microplate reader (MRX, Dynatech). The test articles were evaluated, in duplicate, at five concentrations.

Take `O=C1Cc2ccccc2C(=C2CCNCC2)c2ccsc21` (racemic) [Norketotifen, (RS)-4-(piperidylidene)-9,10-dihydro-4H-benzo-(4,5)-cyclohepta-(1,2-b) thiophene-10-one]: the Sedated animals is 3/10 in the data set on mice (oral dose 83 mg/kg), 3/10 in the data set with mice (oral dose 100 mg/kg), 3/10 with mice (oral dose 150 mg/kg) and 6/10 in the data set with mice (oral dose 180 mg/kg). Moreover, in the data set with mice (physostigmine lethality test), the “Sedation in mice (in words)” value was “expressed sedative activity”. Further, the “Candida albicans count after incubation” value in the data set on Candida albicans was 500 cells. In the data set on Staphylococcus aureus, the “Staphylococcus aureus count after incubation” value is reported as 90,000. Besides, the IC50 in data set [1] (Homo sapiens, Leukocyte, 20 min, A23187 5 μM, 20 min/37° C., read-out: Inhibition of inflammatory mediator (histamine) release, IC50) was 9.2 µM. The “Times more potent than ketotifen as inhibitor of histamine release” value in data set [1] (pro-inflammatory cells) is “approximately 10 times”.
